The source of these data is patent US20210221866A1, “PROTEASE-RESISTANT LIPIDATED GLP-1 ANALOGS” (MEDIMMUNE LIMITED, priority 2015, published 2021).

Like-named read-outs stand apart in the source and are kept apart here. Numbered stars: 1 amine (or outer) side, 2 acyl side, 3 side chain; on linkers, the order of the positions; unused ones are H or OH. Square brackets hold non-standard residues; d marks the D form. Side chains are listed from the residue outwards. Peptide text beside a SMILES is read from it. * marks the point of attachment. γGlu = O=C(O)[C@H](CCC(=O)[*:2])N[*:1]; αMeF = C[C@](N)(Cc1ccccc1)C(=O)O; αMeK = C[C@](N)(CCCCN)C(=O)O; Lauroyl = CCCCCCCCCCCC(=O)*; αMeS = C[C@](N)(CO)C(=O)O; Nle = CCCC[C@H](N)C(=O)O; AEEA = NCCOCCOCC(=O)O; Aib = CC(C)(N)C(=O)O

Series [1] is described as follows: Proteolytic resistance to fasted-state simulated intestinal fluid (FASSIF/Pancreatin). It is filed as in vitro ADME. Conditions: 37° C., read-out: Percentage remaining intact peptide (AUC by RP-HPLC) upon incubation with fasted-state simulated intestinal fluid (FASSIF/P). As to the method:
(§1) A fresh suspension of FASSIF/P (Fasted-State Simulated Intestinal Fluid+USP Pancreatin®) was prepared according to that described by Galia, Nicolaides, Hörter, Lobenberg, Reppas and Dressman: Pharm. Res. 15 (1998) 698-705. The resulting preparation is proteolytically equivalent to ˜375 units/mL (375 kU/L) and was used immediately without storage. Peptides for evaluation (1.0 mg, ˜250 nmoles) were initially dissolved in pre-warmed FASSIF without Pancreatin® (200 μL) to which was added pre-warmed fresh FASSIF/Pancreatin® (100 μL) to initiate potential digestion. Following momentary vortexing of the Eppendorf reaction tube the mixture was incubated at 37° C. in a thermostatic waterbath for the duration of the experiment. 25 μL aliquots of the co-incubated peptide-enzyme mixture were periodically withdrawn (t=0, 5 m, 10 m, 15 m, 30 m, 1 h, 2 h) and quenched immediately by addition to a solution of 10% TFA in 1:1 water/acetonitrile (75 μL) to arrest proteolytic activity.

Series [2] has as its system FASSIF/P (Fasted-State Simulated Intestinal Fluid+USP Pancreatin®). The description is as above. In kind it is in vitro ADME. The conditions noted are these: t = 0; 37° C. As to the method:
as §1

The target in series [3] is T1, human GLP-1 receptor (GLP-1R) (Homo sapiens, UniProt P43220).
T1 construct: expressed in transfected cells; host or cells: HEK293 cells or CHO cells
T1 sequence (P43220 24-463): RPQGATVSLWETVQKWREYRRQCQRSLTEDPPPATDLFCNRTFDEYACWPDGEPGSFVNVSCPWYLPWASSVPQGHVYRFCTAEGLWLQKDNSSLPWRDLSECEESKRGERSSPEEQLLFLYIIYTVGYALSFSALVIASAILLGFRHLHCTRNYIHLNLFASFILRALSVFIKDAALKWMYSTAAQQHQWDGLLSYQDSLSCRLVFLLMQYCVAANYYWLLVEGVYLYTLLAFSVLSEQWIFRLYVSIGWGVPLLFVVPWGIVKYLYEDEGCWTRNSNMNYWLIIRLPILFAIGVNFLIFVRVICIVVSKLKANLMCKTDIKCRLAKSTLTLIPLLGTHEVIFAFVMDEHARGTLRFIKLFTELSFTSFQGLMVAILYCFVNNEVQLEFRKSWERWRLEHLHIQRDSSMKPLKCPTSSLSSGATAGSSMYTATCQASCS
As to the kind of experiment: cAMP assay, human GLP-1R cells. It is filed as cell-based. Conditions: Table 9, bis-lipidated peptides. Summed up:
(§2)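 Peptide-stimulated cAMP measured by two-step HTRF after a 30 min room-temperature incubation with receptor-expressing cells (hGLP-1R, hGIPR at 1×10^5 cells/ml; hGCGR at 2×10^5 cells/ml). Duplicate dilutions; EC50 from 4-parameter logistic fit of % Delta F.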

The target of series [4] is T2, human glucagon receptor (GCGR) (Homo sapiens, UniProt P47871).
T2 construct: expressed in transfected cells; host or cells: HEK293 cells or CHO cells
T2 sequence (P47871 26-477): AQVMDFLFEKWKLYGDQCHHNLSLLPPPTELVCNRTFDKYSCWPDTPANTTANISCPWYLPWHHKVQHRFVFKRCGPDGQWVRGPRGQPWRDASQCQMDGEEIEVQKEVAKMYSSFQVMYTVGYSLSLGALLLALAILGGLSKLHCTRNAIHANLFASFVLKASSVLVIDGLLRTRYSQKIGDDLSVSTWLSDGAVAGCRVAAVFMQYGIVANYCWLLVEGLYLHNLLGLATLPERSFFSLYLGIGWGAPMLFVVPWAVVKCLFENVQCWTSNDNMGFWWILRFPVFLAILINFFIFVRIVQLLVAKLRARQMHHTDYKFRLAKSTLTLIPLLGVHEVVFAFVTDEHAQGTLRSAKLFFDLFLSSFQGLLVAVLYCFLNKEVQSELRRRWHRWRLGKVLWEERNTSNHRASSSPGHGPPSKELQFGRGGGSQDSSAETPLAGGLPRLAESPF
Description: cAMP assay, human GCGR cells. The conditions noted are these: Table 9, bis-lipidated peptides. It is filed as cell-based. The method, boiled down: as §2
On the technique in general: Changes in cAMP serve as a functional read-out for many G protein-coupled receptors.

The target in series [5] is T3, human glucose-dependent insulinotropic peptide receptor (GIPR) (Homo sapiens, UniProt P48546).
T3 construct: expressed in transfected cells; host or cells: HEK293 cells or CHO cells
T3 sequence (P48546 22-466): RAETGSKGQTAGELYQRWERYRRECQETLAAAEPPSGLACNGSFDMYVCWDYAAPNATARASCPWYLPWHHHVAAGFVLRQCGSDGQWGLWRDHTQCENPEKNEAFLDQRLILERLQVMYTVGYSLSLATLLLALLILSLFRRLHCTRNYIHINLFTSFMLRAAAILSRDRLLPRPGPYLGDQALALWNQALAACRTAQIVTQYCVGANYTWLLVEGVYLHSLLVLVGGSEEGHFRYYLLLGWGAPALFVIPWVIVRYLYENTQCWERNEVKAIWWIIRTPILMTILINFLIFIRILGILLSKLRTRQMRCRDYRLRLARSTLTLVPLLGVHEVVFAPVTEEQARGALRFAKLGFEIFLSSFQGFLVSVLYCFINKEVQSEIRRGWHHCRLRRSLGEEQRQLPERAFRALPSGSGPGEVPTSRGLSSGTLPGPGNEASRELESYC
As to the kind of experiment: cAMP assay, human GIPR cells. In kind it is cell-based. Conditions: Table 9, bis-lipidated peptides. Summed up:
as §2

As for `CCCCCCCCCCCC(=O)N[C@@H](CCC(=O)NCCOCCOCC(=O)NCCOCCOCC(=O)NCCCC[C@H](NC(=O)[C@H](C)NC(=O)[C@@H](NC(=O)[C@H](CCCC)NC(=O)[C@H](CCC(=O)O)NC(=O)[C@](C)(CCCCN)NC(=O)[C@H](C)NC(=O)[C@H](C)NC(=O)[C@H](CCC(=O)O)NC(=O)CNC(=O)[C@H](CCC(=O)O)NC(=O)[C@H](CC(C)C)NC(=O)[C@H](CCCCNC(=O)COCCOCCNC(=O)COCCOCCNC(=O)CC[C@H](NC(=O)CCCCCCCCCCC)C(=O)O)NC(=O)[C@H](CO)NC(=O)[C@](C)(CO)NC(=O)[C@@H](NC(=O)[C@H](CC(=O)O)NC(=O)[C@H](CO)NC(=O)[C@@H](NC(=O)[C@](C)(Cc1ccccc1)NC(=O)[C@H](CO)NC(=O)CNC(=O)[C@H](CCC(=O)O)NC(=O)C(C)(C)NC(=O)[C@@H](N)Cc1c[nH]cn1)[C@@H](C)O)C(C)C)[C@@H](C)CC)C(=O)N[C@H](C(=O)N[C@H](C(=O)N[C@@H](CCC(=O)O)C(=O)NCC(=O)NCC(N)=O)C(C)C)C(C)C)C(=O)O` [compound 407] (H-H[Aib]EGS[αMeF]TSDV[αMeS]SK([AEEA-AEEA-γGlu-Lauroyl])LEGEAA[αMeK]E[Nle]IAK([AEEA-AEEA-γGlu-Lauroyl])VVEGG-NH2; N-terminus assumed), the remaining at 5 min, […] in series [1] (t = 5 m) is 86.2%. Also, the remaining at 10 min, […] in series [1] (t = 10 m) is 72.9%. For the same compound, the remaining at 0.25 h, […] in series [1] (t = 15 m) is 60.3%. Besides, the remaining at 0.5 h, […] in series [1] (t = 30 m) was 36.3%. For the same compound, the remaining at 1 h, […] in series [1] (t = 1 h) was 16.2%. Moreover, the remaining at 2 h, […] in series [1] (t = 2 h) was 2.1%. For the same compound, in series [2], the “Percentage remaining intact peptide (AUC by RP-HPLC) upon incubation with fasted-state simulated intestinal fluid (FASSIF/P)” value is 100%. Besides, the EC50 in series [3] (mean of n1 and n2, read-out: Primary assay EC50 Mean pM GLP-1R) is 2 pM; in series [3] (replicate n2, read-out: Primary assay EC50 GLP-1R n2) it was 2.01 pM; in series [4] (first replicate, read-out: Primary assay EC50 Gluc-R (n1)), at least 21.5 nM; in series [4] (second replicate, read-out: Primary assay EC50 Gluc-R (n2)), at least 21.5 nM; in series [5] (first replicate, read-out: Primary assay EC50 GIP-R (n1)), at least 21.5 nM; in series [5] (second replicate, read-out: Primary assay EC50 GIP-R (n2)), at least 21.5 nM.

What is called EC50 is the concentration needed to bring the measured effect to its halfway point.
